Measurements: patent publication US20190211397A1, “INHIBITORS OF GPR132 FOR USE IN PREVENTING AND/OR TREATING CHEMOTHERAPY-INDUCED NEUROPATHIC PAIN” (Fraunhofer-Gesellschaft zur Foerderung der angewandten …, priority 2016, published 2019)
Entries after “also recorded” stand apart in the source; their conditions may differ.

Legend:
TRPV1 = experiment: Calcium imaging of DRG neurons: TRPV1 sensitization (two capsaicin stimuli, Δratio); type: cell-based, mice
Experimental: DRG primary cultures were prepared as described previously (Brenneis et al., 2011 b). Briefly, twenty to thirty murine dorsal roots ganglia (DRGs) were dissected from spinal segments and transferred directly into ice-cold Hanks' balanced salt solution with CaCI2 and MgCI2 (lnvitrogen, Carlsbad, Calif., USA). The DRGs were than incubated with Neurobasal Medium (lnvitrogen, Carlsbad, Calif., USA) containing 500 U/ml collagenase (Sigma, Deisenhofen, Germany) and 2.5 U/ml dispase II (Roche, Mannheim, Germany) for 75 mins at 37° C. After removal of the collagenase/dispase-solution cells were washed three times with medium containing 10% FCS, penicillin/streptomycin/gentamycin (lnvitrogen, Carlsbad, Calif., USA) and incubated in 0.05% trypsin for 10 min at 37° C. After two washing steps, the cells were mechanically dissociated with a 1 ml pipette and plated on Poly-L-lysine (Sigma) coated coverslips. After incubation at 37° C. for 2 h, Neurobasal Medium containing glutamine (2 mm), penicillin (100 U/ml), streptomycin (100 μg/ml), B-27 and gentamicin (50 μg/ml) was added to the cells and incubated overnight. The neurons were used for Calcium imaging the next day.
Calcium-imaging experiments were performed with a Leica calcium-imaging setup, consisting of a Leica DMI 4000 b inverted microscope equipped with a DFC360 FX (CCD) camera, Fura-2 filters, and an N-Plan 10×/0.25 Ph1 objective (all from Leica), was used. Images were taken every 2 s and were processed with the LAS AF-software (Leica). For each experiment, an area with large cell numbers 24 h after preparation (see DRG primary cultures) was chosen and 40-110 cells were monitored simultaneously. Cells were loaded with 5 μM fura-2-AM-ester (Biotium), incubated for 45-60 min at 37° C. and washed with ringer solution (145 mM NaCI, 1.25 mM CaCl2, 1 mM MgCl2, 5 mM KCI, 10 mM D-glucose, and 10 mM HEPES, adjusted to pH 7.3). Baseline measurements were performed with ringer solution at a flow rate of 1-2 ml/min at room temperature. For the activation of TRPV1 we used a solution of 200 nM capsaicin (Sigma), for TRPA1 activation 50 μM allyl isothiocyanate (AITC, Fluka Analytic) and for TRPM8 100 μM L-menthol (Sigma) dissolved in ringer solution. For TRP-channel sensitization, cells were incubated for 2 mins with different concentrations (50 nM-1000 nM) of (±) 9-HODE (Cayman) or (±) 13-HODE (Cayman) before the second stimulus took place. For control stimulations, the corresponding volume of DMSO (Sigma) was mixed in ringer solution and applied with the same flow rate. 10 μM of the PKA inhibitor H89 (Tocris) or 1 μM of the PKC inhibitor GF1 09203X (Tocris) was co-incubated with fura-2 for 45 mins. As positive control for PKA activation 40 iJM 8-bromo-cAMP (Cayman) and for PKC activation 500 nM bradykinin (Cayman) was used. At the end of each measurement, 50 mM KCl was applied to identify neurons.

PKC = PKC inhibitor on TRPV1 sensitization in DRG neurons (calcium imaging); type: cell-based, mice; details: GF109203X 1 μM 45 mins, 9-HODE 200 nM
Experimental: (§1) DRG primary cultures were prepared as described previously (Brenneis et al., 2011 b). Briefly, twenty to thirty murine dorsal roots ganglia (DRGs) were dissected from spinal segments and transferred directly into ice-cold Hanks' balanced salt solution with CaCI2 and MgCI2 (lnvitrogen, Carlsbad, Calif., USA). The DRGs were than incubated with Neurobasal Medium (lnvitrogen, Carlsbad, Calif., USA) containing 500 U/ml collagenase (Sigma, Deisenhofen, Germany) and 2.5 U/ml dispase II (Roche, Mannheim, Germany) for 75 mins at 37° C. […]
(§2) Calcium-imaging experiments were performed with a Leica calcium-imaging setup, consisting of a Leica DMI 4000 b inverted microscope equipped with a DFC360 FX (CCD) camera, Fura-2 filters, and an N-Plan 10×/0.25 Ph1 objective (all from Leica), was used. […] For each experiment, an area with large cell numbers 24 h after preparation (see DRG primary cultures) was chosen and 40-110 cells were monitored simultaneously. […]
(§3) TRPV1 sensitization can be mediated by PKA or PKC (Schnizler et al., 2008; Bhave et al., 2003). To investigate the signaling pathway between G2A and TRPV1 in DRG neurons, we determined which protein kinases are involved in sensitization of TRPV1. […]

PKA = PKA inhibitor on TRPV1 sensitization in DRG neurons (calcium imaging); type: cell-based, mice; details: H89 10 μM 45 mins
Experimental: as §1, §2, §3

C57BL/6N mice = experiment: Mechanical pain thresholds of mice after oxaliplatin (dynamic plantar aesthesiometer); type: in vivo; details: oxaliplatin 3 mg/kg i.p.
Description: In all behavioral tests the experimenter was unaware of the treatment and the genotype of the mice. For all behavioral experiments we used only 6-12 weeks old C57BU6N mice purchased from commercial breeding companies (Charles River, Sulzfeld, Germany, Janvier, Le Geneset-Saint-lsle, FR). G2A and TRPV1 knockout strains were from Jackson laboratories. All experiments followed the ethics guidelines for investigations in conscious animals and the procedures were approved by the local Ethics Committee. […]
To determine the mechanical thresholds of mice, a Dynamic Plantar Aesthesiometer (Ugo Basile, Comerio, Italy) was used. […] Therefore, a steel rod pushed against the plantar side of the hind paw with linear ascending force (0-5 g over 10 s, in 0.5 g/s intervals) until a fast withdraw of the paw was observed The time between the first contact of the steel rod and the paw withdraw was measured in seconds (paw withdraw latency) and a cut-off time of 20 s was set.
To investigate whether or not alterations in concentrations of oxidized lipids occur during oxaliplatin-induced neuropathic pain, 3 mg/kg oxaliplatin (Nassini et al., 2011) was injected i.p. in C57BL/6N mice and the paw withdrawal latency over 10 days was monitored using a dynamic plantar aesthesiometer. […]

patients = details: cited from earlier work
DRGs = experiment: Real-time RT-PCR of DRGs of oxaliplatin treated mice; type: in vivo; details: lumbal DRGs, day 10 after oxaliplatin treatment
Experimental: Lumbar DRGs (L2-L6) were dissected, quick-frozen in liquid nitrogen and stored at −80° C. Total RNA of the DRGs was isolated under RNase-free conditions using a mirVana miRNA Isolation Kit (Ambion) according to the manufacturer's instructions and quantified with a NanoDrop ND-1000 spectrophotometer (NanoDrop Technologies). The cDNA was synthesized from 200 ng RNA using a First Strand cDNA Synthesis Kit (Thermo Scientific) according to the manufacturer's instructions. Real-time RT-PCR was performed using an ABI Prism 7500 Sequence Detection System (Applied Biosystems) using Maxima SYBR Green qPCR Master Mix ROX as well as suitable primers for CYP2C37 (Luo et al., 1998), CYP2C38 (Zhang et al., 2003), CYP2C39 (Luo et al., 1998), CYP2J6 (Choudhary et al., 2003) and CYP3A11 (Chavan et al., 2015).
For analysis of GAPDH (Mm99999915_g1), G2A (Mm02620285_s1), 5-LOX (Mm01182747 m1), 12-LOX (Mm00545833_m1), 15-LOX (Mm00507789_m1) and COX-2 (Mm03294838_g1) assay primer from ThermoFisher Scientific were used. Reactions (total volume 10 μl) were performed in triplicate by incubating at 95° C. for 10 min, followed by 40 cycles of 15 s at 95° C. and 1 min at 60° C. […] Relative expression of target gene levels was determined using the ΔΔCt method, with Ct indicating the cycle number at which the signal of the PCR product crosses a defined threshold set within the exponential phase of the PCR. […]

CCCCCC(O)/C=C/C=C\CCCCCCCC(=O)O (stereo not drawn) [13-HODE]
sensitization of TRPV1 (Δratio of first and second capsaicin stimulus) (TRPV1; DRG neurons, lipid incubated 2 minutes before second capsaicin stimulus, 0 to 1000 nM): no strong sensitizing effect | calcium flux of second vs first capsaicin stimulus (Δratio) (TRPV1; wildtype DRG neurons, lipid 200 nM 120 s, capsaicin 200 nM 30 s): does not increase the Δratio

CN(C)CCCn1cc(C2=C(c3c[nH]c4ccccc34)C(=O)NC2=O)c2ccccc21 [GF109203X]
effect on 9-HODE-induced TRPV1 sensitization (PKC): supresses the 9-HODE-dependent sensitization of TRPV1; also recorded: prevented TRPV1 sensitization

O=S(=O)(NCCNC/C=C/c1ccc(Br)cc1)c1cccc2cnccc12 [H89]
effect on PKA-dependent TRPV1 sensitization caused by 8-bromo-cAMP (PKA; 8-bromo-cAMP 40 μM): inhibited | effect on 9-HODE-induced TRPV1 sensitization (PKA; 9-HODE 200 nM): not influenced; also recorded: failed to supress

O=C1[O][Pt]2([NH][C@@H]3CCCC[C@H]3[NH]2)[O]C1=O [oxaliplatin]
start of reduced mechanical paw withdrawal latencies (C57BL/6N mice): 4 days | mechanical paw withdrawal latencies (C57BL/6N mice; C57BL/6N mice, monitored over 10 days): significantly reduced mechanical paw withdrawal latencies | patients in whom CIPN is induced (patients): up to 80% | mRNA expression of CYP2J6, 5-LOX, 12-LOX, 15-LOX and COX-2 (DRGs): No difference in mRNA expression
